Consider one compound from patent US12419857B2, “Oral topiramate suspension formulations with extended shelf stability and enhanced bioavailability” (Rosemont Pharmaceuticals Limited, priority 2018, dated 2025).

A short description of data set [1]: Dissolution testing (paddles 58 RPM) at three pH levels vs TOPAMAX 200 mg Tablets. Type of data set: physicochemical. The settings on record: once the suspension matrix has degraded. The method, then: Two issues were observed during the dissolution testing of the oral topiramate suspension: (i) the suspension produces very poor inter-vessel reproducibility with very large error values up until near dissolution completion and (ii) when comparing the reference tablet formulation with the suspensions very poor comparison is seen as the tablets tend to complete dissolution at a much faster rate. It was determined that both of these issues are caused by the physiochemical characteristics of the topiramate suspension vehicle and the release of the active ingredient from the suspension matrix. Once the suspension matrix is broken down, the topiramate becomes readily bioavailable. […] Changes in the physical nature of the product can also be detected with this novel testing approach.
Process validation batches were manufactured using the final production equipment and facility to cGMP and compared to a reference product (TOPAMAX® 200 mg Tablets) using dissolution (paddles 58 RPM) at three pH levels (i.e., 1.2, 4.5 and 6.8). FIG. 7. […] Thus, data support the claim that the disclosed 10 mg/ml and 20 mg/ml oral liquid topiramate suspension products are bioequivalent to the reference product TOPAMAX® 200 mg tablets (Janssen Cilag, Ltd.).

Data set [2] is described as follows: Solubility of topiramate in water and non-aqueous reagents. It is filed as physicochemical. As to conditions: for solubility: water. An excerpt: The present application discloses the first example of an aqueous suspension of topiramate with extended physicochemical stability and therapeutic bioavailability equivalent to that of commercially approved solid dose formulations. […] See, Physician's Desk Reference, 56th ed., pp. 2590-2595 (2002). Topiramate may be produced according to the processes disclosed in U.S. Pat. Nos. 4,513,006 and 5,387,700, the entire contents of which are herein incorporated by reference. Topiramate is sold in the United States under the trade name TOPAMAX® (Ortho-McNeil Pharmaceutical, Inc., Raritan, N.J., U.S.A). TOPAMAX® has been approved for use as an antiepileptic agent as an adjuvant therapy for patients with partial onset seizures, or primary generalized tonic-clonic seizures. See generally, Physician's Desk Reference, 56th ed., 2590-2595 (2002); see also, U.S. Pat. No. 4,513,006.
For drugs with low solubility and/or bioavailability at physiological pH and temperature, efforts to develop suspension formulations are often met with varying rates of success due to restrictive physiochemical parameters of the API and/or excipients. For example, while simply increasing the volume of diluent for low-solubility drugs may improve solubility, the large volume of diluent is often prohibitive from a patient perspective.
From a purely chemical perspective, topiramate is highly sensitive to heat (e.g., room temperature) and humidity (e.g., aqueous environment of liquid formulations). For example, abandoned U.S. Pat. App. No. 2006/0270611 discloses that topiramate is highly sensitive to hydrolysis in an aqueous medium and that any conventional aqueous oral solution would have a very limited shelf life. The chemical instability of topiramate is so well known, that pharmacists routinely monitor topiramate degradation by a change in physical appearance (e.g., tablet color changing from white to brown) and by an emergence of chemical breakdown byproducts (e.g., formation of sulfamate and sulphate ions and organic degradation compounds readily detected by HPLC). […]

For data set [3] the following is noted: acetone, chloroform, dimethylsulfoxide, ethanol; cited from earlier work.

≈ marks a conversion by molar mass, not a printed value. Like-named read-outs stand apart in the source and are kept apart here.

In general, solubility refers to the concentration that dissolves in the medium under given conditions. Regarding `CC1(C)O[C@@H]2[C@@H](CO[C@@]3(COS(N)(=O)=O)OC(C)(C)O[C@@H]23)O1` [topiramate, 2,3:4,5-Bis-O-(1-methylethylidene)- -D-fructopyranose sulfamate], in data set [1], the BCS class result is given as “BCS Class I or III”. The solubility in data set [2] (purified water, 25 °C, 25 degrees Celsius, read-out: observed solubility in purified water) worked out at 8300 µg/mL (≈ 24.5 mM); in data set [2] (5 °C, 5 degrees Celsius, read-out: observed solubility in water), 6400 µg/mL (≈ 18.9 mM). For the same compound, the “pH of maximum aqueous solubility” value in data set [2] (strongly alkaline solutions) is on record as around 9.5 pH. Further, the “solubility in non-aqueous reagents” value in data set [3] was “freely soluble”.
